Source: US6046219A, “Method for the treatment of conditions mediated by collagen formation together with cell proliferation by application of inhibitors of protein hydroxylation” (Cornell Research Foundation, Inc., priority 1997, dated 2000)

Columns and labels:
[1] = biological target: T1, cellular human deoxyhypusyl hydroxylase (Homo sapiens, UniProt Q9BU89); experiment: Cellular human deoxyhypusyl hydroxylase (DOHH assay, 3H-spermidine labeling); type: cell-based
T1 construct: endogenous in cells; host or cells: cultured human cells (smooth muscle cells, B-lymphocytes)
T1 sequence (Q9BU89 1-302): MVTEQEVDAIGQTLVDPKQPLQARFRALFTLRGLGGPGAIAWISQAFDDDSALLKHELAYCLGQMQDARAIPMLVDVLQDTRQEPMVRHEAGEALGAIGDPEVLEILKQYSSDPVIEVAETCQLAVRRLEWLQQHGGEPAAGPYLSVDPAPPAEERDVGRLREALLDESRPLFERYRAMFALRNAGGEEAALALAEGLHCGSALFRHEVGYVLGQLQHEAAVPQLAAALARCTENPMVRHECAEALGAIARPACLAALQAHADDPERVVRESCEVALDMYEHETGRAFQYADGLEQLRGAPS
Description: The inhibitory action of the substances according to the invention, for example on collagen secretion or cell proliferation, can be tested in direct assays of the enzymes mediating the pivotal protein hydroxylations for these biological processes, such as prolyl 4-hydroxylase and deoxyhypusyl hydroxylase. This entails the enzymatic hydroxylation of the appropriate protein precursor, either by the cellular or the purified enzyme, in the presence or absence of compounds of Formulae (I) or (II), with concomitant determination of co-substrate utilization by these enzymes or subsequent isolation of the hydroxylated amino acid and its unhydroxylated precursor. In this manner, the inhibitory potency of any given compound can be measured in the cell-free system, in cell culture, or in tissue, and is expressed as the inhibitory dose that gives a 50% reduction of the enzyme-mediated reaction (ID50). Enzyme is tested in analogy to the method of A. Abbruzzese, H. M. Hanauske-Abel, et al., Biochem. Biophys. Acta, 1077, 159-166 (1991) and of K. Majamaa, H. M. Hanauske-Abel, et al., Eur. J. Biochem. 138, 239-245 (1984), which are hereby incorporated by reference. Table III lists the ID50 values of some of the compounds according to the invention, using purified human prolyl 4-hydroxylase and cellular human deoxyhypusyl hydroxylase as representative protein hydroxylases.
The inhibiting effect of hydroxypyridones on the eIF-5A-hydroxylating enzyme was studied in cultured human cells (i.e. smooth muscle cells, B-lymphocytes).
The cellular conversion of the precursor deoxyhypusine to the hydroxylated hypusine in cells was examined, after preincubation with the inhibitor for 60 minutes, by labeling the human cells with ^3 H-spermidine (5 μCi/ml) in 25 cm^2 flasks (1×10^6 cells/flask) for 24 hours prior to cell lysis, precipitation with 10% TCA containing 1 mM each of putrescine, spermidine, and spermine, and hydrolysis in 6 N HCl at 110° C. for 16 hours. The hydrolysate was analyzed for labeled amino acids on an amino acid analyzer by published methods (Park et al., J. Biol. Chem., 257:7217-7222 (1982), which is hereby incorporated by reference). The retention of purified hypusine and deoxyhypusine was determined from standards.

[2] = test system: prolyl 4-hydroxylase in human lung fibroblast line MRC-5; experiment: Assay of cellular human prolyl 4-hydroxylase / collagen secretion in MRC-5 lung fibroblasts; type: cell-based; settings: human lung fibroblasts MRC-5, FIG. 5a-f
Description: FIGS. 5a-f show, as percent of uninhibited controls, the suppressive effect of six hydroxypyridone compounds on prolyl 4-hydroxylation in a human lung fibroblast line ("MRC-5"). Those cells were pretreated with inhibitor for 30 minutes prior to routine metabolic labeling with tritiated proline ("Pro") for 24 hours, followed by standard hydrolysis and separation of amino acids from both supernatant and cells for determination of proline conversion into hydroxyproline ("Hyp").
The established human lung fibroblast line MRC-5 was used, maintained, and propagated by routine cell culture techniques.
SMC or MRC-5 cells (3-5×10^6 cells/35 mm well) were labeled in the presence or absence of hydroxypyridones, with ^3 H-proline (Pro) (4 μCi/ml) for 24 hours in proline- and serum-free Dulbecco […] ("DMEM") containing 50 μg/ml sodium ascorbate and 20 μg/ml β-aminopropionitrile. […] The hydrolysate was derivatized with phenylisothiocyanate and analyzed for ^3 H-proline ("Pro") and ^3 H-hydroxyproline ("Hyp") by HPLC on a reverse-phase C18 column, using an automated HPLC system (Hewlett-Packard, Wilmington, Del.) with an in-line scintillation counter (Inus Systems, Inc., Tampa, Fla.). The position of proline and hydroxyproline was determined from tritiated standards.

[3] = test system: human SMC from fibroproliferative vascular lesions; experiment: Cell proliferation: DNA synthesis (3H-thymidine) in SMC; type: cell-based; settings: for reversibility of cytostatic effect upon withdrawal: corrected for cell number
Description: The effect of the structural hydroxypyridone analog kojic acid is shown for comparison. Serum-stimulated DNA synthesis in SMC was determined by a 4-hour pulse of ^3 H-thymidine given 20 hours after treatment with L-mimosine and kojic acid (filled symbols). Identically treated, but unlabeled cells cultured in parallel, at that time point were washed and returned to fresh culture media without inhibitor for an additional 20 hours prior to otherwise identical labeling with ^3 H-thymidine (open symbols). Data is expressed as ^3 H-thymidine incorporated per cell to compensate for the reduced cell number in the wake of inhibitor treatment.
Inhibition of DNA synthesis was examined by semiautomated methods. SMC were plated at 1×10^4 cells/well in 96-well microtiter plates at least 24 hours prior to the assay. Agents were introduced into normal serum-containing growth media for 20 hours before the cells were pulsed with ^3 H-thymidine (1 μCi/ml) for 4 hours. Cells were collected with a cell harvester and the DNA-incorporated label determined by scintillation counting (Betaplate; Wallac, Inc., Gaithersburg, Md.) (n=6 per point).

cell proliferation = settings: Hanauske-Abel et al. 1994; cited from earlier work

## N[C@@H](Cn1ccc(=O)c(O)c1)C(=O)O [L-Mimosine]
[1]; FIG. 3, assayed in vitro
  inhibition of deoxyhypusyl hydroxylase: directly inhibit
[1]; cellular human enzyme, inhibitory dose that gives 50% reduction of the enzyme-mediated reaction, unit assumed
  Deoxyhypusyl hydroxylase ID50 (cellular): 65 µM
[2]
  secretion of hydroxyproline-containing proteins (collagen secretion): selectively inhibited
[3]; FIGS. 6, 7
  non-specific or toxic effects: did not result from non-specific or toxic effects
[3]; FIG. 7, listed as L-mimosine
  reversibility of cytostatic effect upon withdrawal: non-toxic reversibility
[3]; FIG. 7, listed as mimosine
  reversibility of cytostatic effect upon withdrawal: fully reversible
[3]; following inhibitor removal and additional 24-hour recovery
  rebound effect on DNA synthesis: marked rebound effect
[3]; lesion-derived SMC, initial 24-hour treatment, FIG. 7
  inhibition of DNA synthesis: DNA synthesis was inhibited
[3]; upon removal of compound
  reversibility of suppressive effects (collagen secretion, onset of DNA synthesis): reversible
Cell proliferation
  inhibition of the multiplication of certain cells: reversible inhibitor
